Assay results as given in article PMC7449411, “In silico discovery and biological validation of ligands of FAD synthase, a promising new antimicrobial target” (PLoS Computational Biology, 2020).
Values after ≈ are worked out from the molar mass of the structure shown.

What was measured:
CaFADS = target: T1, CaFADS (Corynebacterium ammoniagenes, UniProt Q59263); experiment: Differential scanning fluorescence (thermal denaturation) binding to CaFADS; settings: for Tm shift of CaFADS thermal denaturation: 2 μM CaFADS, compound up to 250 μM; for Kd: from differential scanning fluorescence data fitted to Eq 2, 20 mM PIPES pH 7.0, 10 mM MgCl2, 2% DMSO, n = 3, mean ± SD
T1 construct: made in house; host or cells: Escherichia coli BL21(DE3)
T1 sequence (Q59263 whole entry): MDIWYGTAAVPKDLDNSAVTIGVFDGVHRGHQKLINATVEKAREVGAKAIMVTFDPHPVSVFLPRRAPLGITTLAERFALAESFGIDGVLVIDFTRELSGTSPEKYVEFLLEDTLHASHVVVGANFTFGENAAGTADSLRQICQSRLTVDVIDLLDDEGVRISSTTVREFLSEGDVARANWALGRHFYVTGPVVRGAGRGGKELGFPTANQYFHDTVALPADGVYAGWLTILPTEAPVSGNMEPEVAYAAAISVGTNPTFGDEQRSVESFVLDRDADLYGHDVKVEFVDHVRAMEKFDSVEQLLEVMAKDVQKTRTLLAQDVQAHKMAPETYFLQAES
Method: Interaction of compounds with CaFADS was evaluated using fluorescence thermal denaturation, on the bases of the shifts in denaturation midpoints of thermal curves of the protein [65]. Denaturations were performed in a Stratagene Agilent Mx3005p qPCR instrument (Santa Clara, US) following SYPR Orange (ThermoFisher Scientific) emission fluorescence (excitation at 492 nm and emission at 610 nm), which greatly increases when this probe binds to protein hydrophobic regions becoming solvent exposed upon thermal unfolding. Solutions containing 2 μM CaFADS with the studied compound in an increasing 5-250 μM concentration range (2% residual final concentration of DMSO) and 5xSYPR Orange in 20 mM PIPES pH 7.0, 10 mM MgCl2, with a 100 μL total volume were dispensed into 96-well microplates (BRAND 96-well plates pure grade™). After an initial 1 min incubation at 25 °C within the equipment, unfolding curves were registered from 25 to 100 °C at 1 °C·min^−1. Control experiments with CaFADS samples with/without DMSO were routinely performed in each microplate. For those compounds shifting midpoint denaturation temperature, Tm, the dissociation constant, Kd, was predicted by fitting the data to the equation [66] ΔTm/Tm=NRTm0/ΔH0ln(1+[L]/Kd), (2) which estimates the extent of the ligand-induced protein stabilization/destabilization. ΔTm=|Tm-Tm0| with Tm0 and Tm being the midpoint denaturation temperatures in the absence and the presence of ligand, respectively, and ΔH0 the unfolding enthalpy of the protein in the absence of ligand.

FMNAT activity of CaFADS = target: T2, FMNAT activity of CaFADS (Corynebacterium ammoniagenes, UniProt Q59263); experiment: Inhibition of the FMNAT activity of CaFADS; type: biochemical; settings: 25 °C; for IC50: kinetic measurements, 5 μM FMN, 50 μM ATP, 20 mM PIPES pH 7.0, 10 mM MgCl2, 2% DMSO; for FMNAT % Res. act. 250 μM: residual activity at 250 μM of compound
T2 construct: made in house; host or cells: Escherichia coli BL21(DE3)
T2 sequence (Q59263 whole entry): as above
Method: (§1) To determine the compound’s ability to inhibit the RFK and/or the FMNAT activities of CaFADS, both enzymatic activities were quantitatively measured in the absence and presence of the compounds following previously described protocols. Reaction mixtures contained 50 μM ATP, 5 μM RF in 20 mM PIPES, pH 7.0, 0.8 mM MgCl2, when assaying the RFK activity, and 50 μM ATP, 10 μM FMN in 20 mM PIPES, pH 7.0, 10 mM MgCl2 when measuring the FMNAT reaction. Each compound was tested at 250 μM (0.5% residual final concentration of DMSO) for each of the two enzymatic reactions. The samples were pre-incubated at 25 °C, the reaction was then initiated by the addition of ∼ 40 nM CaFADS (final concentration) and allowed for 1 min. Finally, the reaction was stopped by boiling the samples for 5 min and the denatured protein was eliminated through centrifugation. The transformation of RF into FMN and FAD (RFK activity) and of FMN into FAD (FMNAT activity) was evaluated through flavins separation by HPLC (Waters), as previously described. All the experiments were performed in triplicate. To evaluate the potency of compounds as inhibitors, we took advantage of the decrease in quantum yield of fluorescence when FMN is transformed into FAD, which allows to follow such transformation in a continuous system. Measurements were carried out using a microplate reader Synergy HT multimode plate reader (Biotek) with BRAND 96-well plates pure Grade. Reaction mixtures contained 5 μM RF or FMN, and 50 μM ATP in 20 mM PIPES, pH 7.0, 10 mM MgCl2, and the inhibitor compound in a 5-250 μM concentration range (2% residual final concentration of DMSO). Reactions were initiated through addition of 0.4 μM CaFADS, being the final reaction volume 100 μL. Flavin fluorescence (excitation at 440 nm and emission at 530 nm) was registered at 25 °C, every 50 s during 15 min. The fluorescence change per time unit (ΔF/Δt) was calculated as the slope of the resulting fluorescence decays recorded between 0 and 6 min (linear decay of the fluorescence). Controls which contained the reaction mixture without the enzyme and without any potential CaFADS inhibitory compound were included in the assay and referred as the 0% and 100% of enzymatic activity, respectively. IC50 was calculated as the concentration of compound required for a 50% inhibition of the enzymatic activity.

[1] = target: T3, RFK+FMNAT CaFADS activities (Corynebacterium ammoniagenes, UniProt Q59263); experiment: Inhibition of the RFK+FMNAT activity of CaFADS; type: biochemical; settings: 25 °C; for IC50: kinetic measurements, 20 mM PIPES pH 7.0, 10 mM MgCl2, 2% DMSO; for RFK+FMNAT % Res. act. 250 μM: residual activity at 250 μM of compound
T3 construct: made in house; host or cells: Escherichia coli BL21(DE3)
T3 sequence (Q59263 whole entry): as above
Method: as §1

C. ammoniagenes = experiment: MIC, resazurin broth microdilution; type: cell-based, Corynebacterium ammoniagenes; settings: for MIC: C. ammoniagenes; for MIC (μM) C. ammoniagenes: Table 3
C. glutamicum = experiment: MIC, resazurin broth microdilution; type: cell-based, Corynebacterium glutamicum; settings: media BHI
C. diphteriae = experiment: MIC, resazurin broth microdilution; type: cell-based, Corynebacterium diphteriae
M. tuberculosis = experiment: MIC, resazurin broth microdilution; type: cell-based, Mycobacterium tuberculosis; settings: for MIC: M. tuberculosis, media 7H9G-ADC; for MIC (μM) M. tuberculosis: Table 3
M. smegmatis = experiment: MIC, resazurin broth microdilution; type: cell-based, Mycobacterium smegmatis; settings: media 7H9G-ADC
S. pneumoniae = experiment: MIC, resazurin broth microdilution; type: cell-based, Streptococcus pneumoniae
E. coli = experiment: MIC, resazurin broth microdilution; type: cell-based, Escherichia coli; settings: media LB
L. monocytogenes = experiment: MIC, resazurin broth microdilution; type: cell-based, Listeria monocytogenes; settings: media BHI
P. aeruginosa = experiment: MIC, resazurin broth microdilution; type: cell-based, Pseudomonas aeruginosa; settings: media MH
S. thyphimurium = experiment: MIC, resazurin broth microdilution; type: cell-based, Salmonella thyphimurium; settings: media MH
S. aureus = experiment: MIC, resazurin broth microdilution; type: cell-based, Staphylococcus aureus; settings: media MH
Mycobacteriumspecies = experiment: MIC against Mycobacterium species (S5 Fig legend); type: cell-based
A549 = experiment: MTT cytotoxicity assay; type: cell-based; settings: 24 h
Method: (§2) The (4,5-dimethylthiazol-2-yl)-2,5-diphenyl tetrazolium bromide (MTT) assay was used to determine the effect of the compounds in cell growth and viability of HeLa (ATCC CCL-2) and A549 (ATCC CCL-185) eukaryotic cell lines. Both cell lines were routinely cultured in high-glucose DMEM (Lonza) supplemented with 10% fetal bovine serum, 4 mM glutamine GlutaMAX™ (Gibco) and 1x non-essential amino acids (Gibco), under 5% CO2 at 37 °C in a humidified atmosphere. For the MTT assay, cells were initially seeded in 96-well flat-bottom plates at a density of 10^4 cells per well and cultured for 24 h. Cultures were routinely tested for mycoplasma presence. The compounds were dissolved in fresh culture medium, added in a 4-512 μM concentration range (1% DMSO final concentration), and incubated with the cells for 24 h. Finally, formazan crystals were dissolved with pure DMSO and MTT absorbance was measured at 570 and 650 nm. Untreated cells were included as control of 100% viability. Assays were done in quadruplicate.

HeLa = experiment: MTT cytotoxicity assay; type: cell-based; settings: 24 h
Method: as §2

[2] = complete viability at lower concentrations
[3] = 4-512 μM range, read-out: IC50 (concentration causing 50% inhibition of cellular viability)

SMILES | Tm shift of CaFADS thermal denaturation (CaFADS) | Kd (CaFADS) [µM] | FMNAT % Res. act. 250 μM (FMNAT activity of CaFADS) [%] | RFK+FMNAT % Res. act. 250 μM [1] [%] | MIC (C. ammoniagenes; media BHI) [µM] | MIC (C. ammoniagenes; media MH) [µM] | MIC (C. ammoniagenes; media MH+DFO) [µM] | MIC (C. ammoniagenes; media MH+DIP) [µM] | MIC (C. ammoniagenes; media MH+DIP+DFO) [µM] | MIC (C. glutamicum) [µM] | MIC (C. diphteriae; media BHI) [µM] | MIC (C. diphteriae; media MH) [µM] | MIC (M. tuberculosis) [µM] | MIC (M. smegmatis) [µM] | MIC (S. pneumoniae; media BHI) [µM] | MIC (E. coli) [µM] | MIC (L. monocytogenes) [µM] | MIC (P. aeruginosa) [µM] | MIC (S. thyphimurium) [µM] | MIC (S. aureus) [µM] | also measured
CC1(C(=O)O)CCC2C(CCC3CC(O)CCC32C)C1C=C1Nc2ccccc2C1=O (stereo not shown) [Compound C3, 7-hydroxy-2,4b-dimethyl-1-[(3-oxo-2,3-dihydro-1H-2-indolyliden)methyl]perhydro-2-phenanthrenecarboxylic acid] | shifted it to lower values | 18 ± 8 | 48 ± 3 | 48 ± 5 | > 64 | > 256 | > 256 | > 256 | > 256 | > 64 | > 64 | > 256 | 256 (≈ 108 µg/mL) | > 256 | 256 (≈ 108 µg/mL) | > 64 | > 64 | > 256 | > 256 | > 256 | IC50 (FMNAT activity of CaFADS): 238 ± 7 µM; IC50 [1]: 248 ± 3 µM; MIC (μM) C. ammoniagenes (C. ammoniagenes): >256 µM; MIC (μM) M. tuberculosis (M. tuberculosis): 256 µM (≈ 108 µg/mL); MIC (S. pneumoniae; media MH): 256 µM (≈ 108 µg/mL); MIC Mycobacterium species (Mycobacteriumspecies): lower than 256 μM
O=C(O)c1ccccc1C(=O)NC1CCN(c2nccc(C(F)(F)F)n2)CC1 [Compound C18, 2-[({1-[4-(trifluoromethyl)pyrimidin-2-yl]piperidin-4-yl}amino)carbonyl]benzoic acid] | shifted it to lower values | 3 ± 0.9 | – | – | – | > 256 | – | > 256 | 256 (≈ 101 µg/mL) | > 256 | – | 32 (≈ 12.6 µg/mL) | > 256 | – | – | > 256 | 64 (≈ 25.2 µg/mL) | > 256 | > 256 | 256 (≈ 101 µg/mL) | IC50 (FMNAT activity of CaFADS): 143 ± 4 µM; IC50 [1]: 147 ± 4 µM; concentration range with moderate cytotoxicity (A549; [2]): 256 to 512 µM; concentration range with moderate cytotoxicity (HeLa; [2]): 256 to 512 µM
Cc1c(N=CN(C(=O)c2ccccc2)c2cccc([N+](=O)[O-])c2C)cccc1[N+](=O)[O-] [Compound C7, N1-(2-methyl-3-nitrophenyl)-N1-{[(2-methyl-3-nitrophenyl)imino]methyl}benzamide] | – | – | >95 | 82 ± 7 | – | > 256 | > 256 | > 256 | > 256 | > 256 | – | > 256 | > 256 | – | – | > 256 | > 256 | > 256 | > 256 | > 256 | –
CSC(=NS(=O)(=O)c1c(C)noc1C)NNC(=O)Nc1ccc(Cl)cc1 [Compound C9, N1-(4-chlorophenyl)-2-[{[(3,5-dimethylisoxazol-4-yl)sulfonyl]imino}(methylthio)methyl]hydrazine-1-carboxamide] | more than 3 degrees | 6.4 ± 1.2 | 56 ± 6 | 76 ± 3 | > 64 | > 256 | > 256 | > 256 | > 256 | > 64 | > 64 | > 256 | > 256 | > 256 | > 256 | > 64 | > 64 | > 256 | > 256 | > 256 | MIC (S. pneumoniae; media MH): > 256 µM
COc1ccc(C(NC(=O)CCC(NC(=O)OCc2ccccc2)C(=O)O)c2ccc(OC)cc2)cc1 (stereo not shown) [Compound C2, 2-{[(benzyloxy)carbonyl]amino}-5-{[di(4-methoxyphenyl)methyl]amino}-5-oxopentanoic acid] | – | – | >95 | 88 ± 2 | 64 (≈ 32.4 µg/mL) | 128 (≈ 64.8 µg/mL) | 128 (≈ 64.8 µg/mL) | 128 (≈ 64.8 µg/mL) | 64 (≈ 32.4 µg/mL) | 16 (≈ 8.1 µg/mL) | 64 (≈ 32.4 µg/mL) | 128 (≈ 64.8 µg/mL) | 256 (≈ 130 µg/mL) | 256 (≈ 130 µg/mL) | 256 (≈ 130 µg/mL) | > 64 | > 64 | > 256 | > 256 | 128 (≈ 64.8 µg/mL) | MIC C. ammoniagenes (C. ammoniagenes; S5 Fig legend, medium not stated): 64 µM (≈ 32.4 µg/mL); MIC (μM) C. ammoniagenes (C. ammoniagenes): 128 µM (≈ 64.8 µg/mL); MIC (μM) M. tuberculosis (M. tuberculosis): 256 µM (≈ 130 µg/mL); MIC (S. pneumoniae; media MH): > 256 µM; MIC Mycobacterium species (Mycobacteriumspecies): lower than 256 μM; IC50 (A549; [3]): > 512 µM; IC50 (HeLa; [3]): > 512 µM
